Key:
[1] = system: Microtubule-associated protein 2 (MAP2); assay: Ex.3 neuroprotective HIE rat model: MAP2 staining; format: in vivo; conditions: PND14
Method: The brain sections were processed for immunohistochemical detection of neuronal cytoskeletal disruption. For antigen retrieval, the sections were heated in 10 mmol/L citrate buffer (pH 6.0) at 100° C. for 10 minutes. Endogenous peroxidase activity was blocked with 3% hydrogen peroxide for 10 minutes and after a second blocking with 5% normal goat serum, the sections were incubated with anti-microtubule-associated protein 2 (MAP2) antibody, diluted 1:1000 (mouse monoclonal antibody; Sigma, St. Louis, Mo., US) 1 h at room temperature. After rinsing, biotinylated goat anti-mouse immunoglobulin G (Vector Laboratories, Burlingame, Calif.) was added, and antibody detection was performed with the avidin-biotin complex method (Vector Laboratories), with 3,3′-diaminobenzidine (DAB) as the chromogen. Following the reaction with DAB, the slides were washed, dehydrated, and coverslipped.
Samples were analyzed with the aid of an image scanner (Nanozoomer Virtual Microscopy, Hamamatsu, Tokyo, Japan) and the ImageJ software (NIH, US). The MAP2 positive areas in the ipsilateral and contralateral hemispheres were measured. The ratio of the MAP2 positive areas was calculated as the MAP2 positive area of the ipsilateral hemisphere divided by the MAP2 positive area of the contralateral hemisphere. The ratio of the MAP2 positive area in the Sham group was considered by default as 1.0.
Newborn rat pups were assigned to one of the following 6 groups from postnatal day 4: Sham group (n=24), Vehicle group (n=14), E4 1 mg/kg/per day group (n=11), E4 5 mg/kg/per day group (n=14), E4 10 mg/kg/per day group (n=14), or E4 50 mg/kg/per day group (n=19). From postnatal day 4, rat pups were intraperitoneally injected either vehicle (Vehicle group) or E4 (1, 5, 10, or 50 mg/kg/per day in accordance to the E4 group assignment) or neither vehicle nor E4 (Sham group). At day 7, 30 minutes after last injection, animals were anesthetized with isoflurane (induction, 3.0%; maintenance, 1.5%), and the rat pups from Vehicle and E4 groups passed through surgery encompassing left common carotid artery double ligation and cut. After the procedure, the pups were returned to their dams and were allowed to recover for 1 hour. The pups were then placed in the humidified hypoxic in vivo cabinet (CoyLab, Grass Lake, Mich., USA). Hypoxia was produced by the inhalation of 11%-8% of oxygen balanced by nitrogen at decreased concentration of oxygen for 20 minutes, followed by inhalation of 8% oxygen and 92% nitrogen at constant concentration for 35 minutes. All the manipulations were performed at 37° C. The Sham group went through similar procedures without left common carotid artery ligation followed by hypoxia nor injection. […]

MCF-7 cells = conditions: compared to E2; cited from earlier work
[2] = system: intact cells in hippocampus and cortex; assay: Ex.8 therapeutic HIE rat model: intact cell counting; format: in vivo
Method: To study the therapeutic effect of estetrol, newborn rat pups were assigned to one of the following 14 groups at postnatal day 7 (FIG. 23(B)): Sham group (n=12), Vehicle (n=15), 5 mg/kg/day E4 (n=11), 10 mg/kg/day E4 (n=11), 5 mg/kg/day E4+1.6 mg/kg/day PROG (n=11), 10 mg/kg/day E4+1.6 mg/kg/day PROG (n=11), 5 mg/kg/day E4+16 mg/kg/day PROG (n=11), 10 mg/kg/day E4+16 mg/kg/day PROG (n=13), 5 mg/kg/day E4+136 ng//kg/day E2 (n=11), 10 mg/kg/day E4+136 ng/kg/day E2 (n=11), 5 mg/kg/day E4+1.6 mg/kg/day PROG+136 ng/kg/day E2 (n=12), 10 mg/kg/day E4+1.6 mg/kg/day PROG+136 ng/kg/day E2 (n=11), 5 mg/kg/day E4+16 mg/kg/day PROG+136 ng/kg/day E2 (n=11), 10 mg/kg/day E4+16 mg/kg/day PROG+136 ng/kg/day (n=12) groups. […] After surgery, the pups were returned to their dams and allowed to recover for 1 hour. The pups were then placed in a humidified hypoxic in vivo cabinet (CoyLab). Hypoxia was produced by the inhalation of 11%-8% of oxygen balanced by nitrogen at decreased concentration of oxygen for 20 minutes, followed by inhalation of 8% oxygen and 92% nitrogen at constant concentration for 35 minutes. All the manipulations were performed at 37° C. Upon retrieval from the hypoxia chamber the rat pups were injected ip once either by vehicle (vehicle group) or by in accordance to the group assignment. The animals from the sham group went through similar procedures but proceeded neither left common carotid artery ligation and cut followed by hypoxia nor injections. Rat pups recovered with their dams until being sacrificed at postnatal day 14 (FIG. 24(B)). […]
Intact cell counting was performed on hematoxylin-eosin-stained sections of the rat pups brains at magnification 400× in 3 fields of the respective brain area. […] The sections were analyzed with the aid of a microscope (Olympus BX51, Olympus, Tokyo, Japan), an image scanner (DotSlide Digital Virtual Microscopy, Olympus, Germany) and ImageJ software (NIH, US). […]

[3] = Ex.3 neuroprotective HIE rat model: body weight; format: in vivo
Method: Newborn rat pups were assigned to one of the following 6 groups from postnatal day 4: Sham group (n=24), Vehicle group (n=14), E4 1 mg/kg/per day group (n=11), E4 5 mg/kg/per day group (n=14), E4 10 mg/kg/per day group (n=14), or E4 50 mg/kg/per day group (n=19). From postnatal day 4, rat pups were intraperitoneally injected either vehicle (Vehicle group) or E4 (1, 5, 10, or 50 mg/kg/per day in accordance to the E4 group assignment) or neither vehicle nor E4 (Sham group). At day 7, 30 minutes after last injection, animals were anesthetized with isoflurane (induction, 3.0%; maintenance, 1.5%), and the rat pups from Vehicle and E4 groups passed through surgery encompassing left common carotid artery double ligation and cut. After the procedure, the pups were returned to their dams and were allowed to recover for 1 hour. The pups were then placed in the humidified hypoxic in vivo cabinet (CoyLab, Grass Lake, Mich., USA). Hypoxia was produced by the inhalation of 11%-8% of oxygen balanced by nitrogen at decreased concentration of oxygen for 20 minutes, followed by inhalation of 8% oxygen and 92% nitrogen at constant concentration for 35 minutes. All the manipulations were performed at 37° C. The Sham group went through similar procedures without left common carotid artery ligation followed by hypoxia nor injection. Rat pups recovered with their dams and reared normally until being sacrificed at postnatal day 14.
To monitor the post-operative well-being of the rat pups due to the performed manipulations and estetrol pre-treatment, the body weight was monitored from postnatal day 7 to day 14 inclusive.

C[C@]12CC[C@@H]3c4ccc(O)cc4CC[C@H]3[C@@H]1[C@@H](O)[C@@H](O)[C@@H]2O [E4, 1,3,5(10)-estratrien-3,15α,16α,17β-tetrol]
ratio of MAP2-positive area (ipsilateral/contralateral) ([1]; 1 mg/kg E4 ip PND4-7 before HI): 0.929±0.019
ratio of MAP2-positive area (ipsilateral/contralateral) ([1]; 5 mg/kg E4 ip PND4-7 before HI): 0.889±0.063
ratio of MAP2-positive area (ipsilateral/contralateral) ([1]; 10 mg/kg E4 ip PND4-7 before HI): 0.898±0.022
ratio of MAP2-positive area (ipsilateral/contralateral) ([1]; 50 mg/kg E4 ip PND4-7 before HI): 0.922±0.031
estrogenic activity in growth promotion of MCF-7 cells (MCF-7 cells): weak estrogen
number of intact cells ([2]; 10 mg/kg/day E4, CA1): 57.30±5.19
intact cell counting per visual field ([2]; 10 mg/kg/day E4, DG): 150.20±9.43
number of intact cells ([2]; 10 mg/kg/day E4, cortex): 46.60±1.83
body weight ([3]; 1 mg/kg ip PND4-7 before HI, PND 10, 11 and 12, vs vehicle): significantly higher body weight than the vehicle group
body weight ([3]; 1 mg/kg ip PND4-7 before HI, PND 14, vs vehicle): significantly higher body weight than the vehicle group
body weight ([3]; 5 mg/kg ip PND4-7 before HI, PND 8, 9, 10, 12, vs sham): sham operated animals body weight was significantly higher
body weight ([3]; 5 mg/kg ip PND4-7 before HI, PND 14, vs vehicle): significantly higher body weight than the vehicle group
body weight ([3]; 10 mg/kg ip PND4-7 before HI, PND 9, vs vehicle): significantly higher body weight than the vehicle group
body weight ([3]; 10 mg/kg ip PND4-7 before HI, PND 10, 11 and 12, vs vehicle): significantly higher body weight than the vehicle group
body weight ([3]; 10 mg/kg ip PND4-7 before HI, PND 14, vs vehicle): significantly higher body weight than the vehicle group
body weight ([3]; 50 mg/kg ip PND4-7 before HI, PND 8, 9, 10, 12, vs sham): sham operated animals body weight was significantly higher
body weight ([3]; 50 mg/kg ip PND4-7 before HI, PND 11, 13, 14, vs sham): sham operated animals had significantly higher body weight
body weight ([3]; estetrol pre-treated (1, 5, 10, 50 mg/kg) ip PND4-7 before HI, PND 8 and 13, vs vehicle): significantly higher post-operative body weight than the vehicle pre-treated animals
